These results are taken from publication PMC10746053, “Development of Novel Pyrrole Derivatives and Their Cinnamic Hybrids as Dual COX-2/LOX Inhibitors” (Molecules, 2023).

Data set [1] has as its target T1, soybean lipoxygenase isoenzyme-1 (SLOX-1) (Glycine max, UniProt P08170).
T1 construct: purchased Sigma Chemical, Co. (St. Louis, MO, USA)
T1 sequence (P08170 1-839): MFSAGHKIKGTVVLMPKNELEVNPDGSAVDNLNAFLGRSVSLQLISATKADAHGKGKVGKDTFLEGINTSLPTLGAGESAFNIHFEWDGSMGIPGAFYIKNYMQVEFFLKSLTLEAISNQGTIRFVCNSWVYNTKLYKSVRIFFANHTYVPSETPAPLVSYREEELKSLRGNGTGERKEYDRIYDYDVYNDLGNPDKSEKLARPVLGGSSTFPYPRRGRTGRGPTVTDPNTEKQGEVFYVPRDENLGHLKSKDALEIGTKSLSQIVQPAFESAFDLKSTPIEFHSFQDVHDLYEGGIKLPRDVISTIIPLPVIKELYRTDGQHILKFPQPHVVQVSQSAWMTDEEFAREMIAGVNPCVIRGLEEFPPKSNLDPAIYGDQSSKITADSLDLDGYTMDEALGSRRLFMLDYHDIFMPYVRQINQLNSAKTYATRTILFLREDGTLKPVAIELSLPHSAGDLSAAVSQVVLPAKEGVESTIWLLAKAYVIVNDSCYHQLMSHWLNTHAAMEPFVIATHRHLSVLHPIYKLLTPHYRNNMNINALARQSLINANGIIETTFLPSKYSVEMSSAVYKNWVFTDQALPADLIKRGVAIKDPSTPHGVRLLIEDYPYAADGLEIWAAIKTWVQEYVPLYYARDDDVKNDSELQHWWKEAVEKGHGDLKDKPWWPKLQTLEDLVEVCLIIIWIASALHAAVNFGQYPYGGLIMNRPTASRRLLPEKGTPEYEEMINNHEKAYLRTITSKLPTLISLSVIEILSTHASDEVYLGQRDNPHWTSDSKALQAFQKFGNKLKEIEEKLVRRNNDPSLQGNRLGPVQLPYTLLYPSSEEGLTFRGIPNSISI
Description: Inhibition of soybean lipoxygenase in vitro. In kind it is biochemical. The note with it: soybean LOX; for IC50: pH 9.00, ± SD, read-out: LOX Inh. IC50. Here is the method: In vitro anti-LOX activities were measured against soybean lipoxygenase isoenzyme-1 (SLOX-1), which is widely used as a model for mammalian LOXs.
An in vitro study was conducted as reported previously. The tested compounds were dissolved in DMSO (100 µM) and incubated at room temperature with sodium linoleate (0.1 mL) as a substrate and 0.2 mL of a soybean lipoxygenase solution in a buffer solution of Tris:HCl (pH 9.00).

Data set [2] has as its target T2, ovine COX-2 (Ovis aries, UniProt P79208).
T2 sequence (P79208 17-603): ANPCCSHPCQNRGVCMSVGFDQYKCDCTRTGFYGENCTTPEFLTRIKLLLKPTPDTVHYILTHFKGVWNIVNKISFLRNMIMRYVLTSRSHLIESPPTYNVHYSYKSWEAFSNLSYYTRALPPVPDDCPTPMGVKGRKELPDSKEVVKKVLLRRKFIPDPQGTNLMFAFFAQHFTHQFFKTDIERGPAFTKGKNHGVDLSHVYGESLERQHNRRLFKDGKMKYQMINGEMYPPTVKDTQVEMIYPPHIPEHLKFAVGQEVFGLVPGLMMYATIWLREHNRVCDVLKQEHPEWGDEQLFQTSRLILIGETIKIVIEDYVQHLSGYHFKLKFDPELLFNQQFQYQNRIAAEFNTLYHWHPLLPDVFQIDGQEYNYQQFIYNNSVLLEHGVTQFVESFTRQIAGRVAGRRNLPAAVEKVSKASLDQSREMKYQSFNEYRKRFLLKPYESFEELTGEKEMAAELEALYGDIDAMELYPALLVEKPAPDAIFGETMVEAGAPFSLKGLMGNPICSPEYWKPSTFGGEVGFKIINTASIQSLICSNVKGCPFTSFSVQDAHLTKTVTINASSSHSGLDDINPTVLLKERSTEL
Description: Inhibition of ovine cyclooxygenase-2 (TMPD co-substrate). The note with it: for inhibition at 100 µM: read-out: COX-2 Inh. % at 100 μM, 100 μM, ovine COX-2.
Description: The oxidized TMPD has an absorbance maximum at 590 nm. COXs require heme (Fe^3+-protoporphyrin IX) as a cofactor which may dissociate from the protein during its purification. Therefore, in the in vitro enzymatic assay of ovine COX-2 inhibition, heme is added to ensure maximal enzyme activity [54]. […] The in vitro COX-2 inhibitory activity was determined using arachidonic acid (AA) as a substrate and N,N,N′,N′-tetramethyl-p-phenylenediamine (TMPD) as a co-substrate in a buffer solution of Tris:HCl (pH 8.5) [27]. Ten microliters of the DMSO solution of the compound of interest were added in a test tube containing 730 μL of buffer Tris:HCl (pH 8.5), 50 μL of heme, 10 μL of COX-2 and 100 μL of TMPD. […] A blank determination was used first to serve as a negative control.

The nature of data set [3]: Inhibition of linoleic acid lipid peroxidation (AAPH). The note with it: 37 °C, ± SD. The text has this:
It is widely known that oxidative stress can induce lipid peroxidation. One of the major end products of the latter process are lipid-derived aldehydes, such as malondialdehyde (MDA), which is more chemically stable and membrane-permeable than ROS. These lipid aldehydes can participate in cross-linking with DNA and proteins and subsequently facilitate the development of various pathological states. Herein, we used the water-soluble 2,2′-azobis(2-methylpropionamidine) dihydrochloride (AAPH) as a free radical initiator for the in vitro antioxidant assay due to its ability to generate alkylperoxy radicals in the presence of oxygen molecules at 37 °C [53]. […] Pyrroles 1 and 2 with high lipophilicity (ClogP of 1 = 5.7, ClogP of 2 = 5.05; RM of 1 = 0.3076, RM of 2 = 0.0116) and molecular volume (MV of 1 = 318, MV of 2 = 290) values appeared to be weak antioxidants (34% and 33% at 100 μM, respectively). […] The presence of a bulkier substituent Ar^2 decreased the anti-lipid peroxidation activity of 5 (36% at 100 μM) compared to 8 (58% at 100 μM).
In vitro enzymatic assay was conducted as reported in previous studies. 2,2′-Azobis(2-methylpropionamidine) dihydrochloride (AAPH) was used as a controllable source of thermally produced alkylperoxy free radicals. The production of conjugated diene hydroperoxides via the oxidation of sodium linoleate in an aqueous dispersion at 37 °C was monitored at 234 nm. The results were compared to the reference compound, trolox (93%) (Table 2).

Data set [4] addresses T2, ovine COX-2. More on the design: purchased Cayman. The note with it: read-out: COX-2 Inh. IC50; cited from earlier work.
For data set [5] the following is noted: cited from earlier work.
The target of data set [6] is T1, soybean lipoxygenase isoenzyme-1 (SLOX-1). The note with it: soybean LOX; read-out: LOX Inh. IC50; cited from earlier work.
On the set-up of data set [7]: method as in doi:10.3390/M1314. The note with it: Molinspiration software; cited from earlier work.
Details of data set [8]: method as in doi:10.3390/M1314. The note with it: RPTLC; cited from earlier work.
Data set [9] has as its system paw edema. The note with it: Figure 1; cited from earlier work.
The test system of data set [10] is COX-1. The note with it: Figure 1; cited from earlier work.
Data set [11] relates to 5-LOX. The note with it: Figure 1; cited from earlier work.
Data set [12] relates to COX-2. The note with it: Figure 1; cited from earlier work.
The nature of data set [13]: Experimental lipophilicity as RM values by reversed-phase TLC. In kind it is physicochemical. The note with it: RPTLC, methanol/water 70/30 v/v, five measurements. An excerpt:
Lipophilicity is one of the most studied physicochemical properties in the drug discovery process and is frequently employed in structure–activity relationship (SAR) studies. It contributes to the ADMET (absorption, distribution, metabolism, excretion, toxicity) properties, solubility, permeability to the potency and efficacy of drugs. […] In TLC, the retention parameter, RF, is defined as the ratio between the migration distances of the compound and of the mobile phase, both measured from the sample application position. The term RM was introduced to facilitate a linear relationship with the log P values, and it is defined as similar to the capacity factor, k, in HPLC.
Reversed-phase thin-layer chromatography (RPTLC) was used for the determination of RM values. Silica gel plates were saturated with 5% v/v liquid paraffin in petroleum ether. The mobile phase consisted of a methanol/water mixture (70/30, v/v). The plates were developed in closed chromatography tanks saturated with the mobile phase. Spots were detected under UV light or after exposure to iodine vapor. RM values were calculated from the corresponding Rf values (from five individual measurements) using […]. RM = log[(1/Rf) − 1], (2) where Rf is obtained by dividing the distance covered by the sample by the distance covered by the mobile phase.

“And” between values parts separate entries of the source, which are not always exact repeats. Equal entries are not always repeated. Where two headings read alike, the source gives them in different places.

Consider `CN(C)c1ccc(-c2cn(C(=O)/C=C/c3ccccc3)cc2C(=O)c2cccs2)cc1` [compound 7, (E)-1-(3-(4-(dimethylamino)phenyl)-4-(thiophene-2-carbonyl)-1H-pyrrol-1-yl)-3-phenylprop-2-en-1-one], for which the IC50 was 35 ± 1.6 µM in data set [1] and 7.2 ± 0.3 µM in [2]. Further, in data set [3] (100 µM), the “ILP % at 100 μM (inhibition of lipid peroxidation)” value was 31% and 31.1 ± 1.1%.

In the case of `O=C(c1ccccc1)c1c[nH]cc1-c1ccccc1` [compound 4], the IC50 in data set [4] was 0.65 ± 0.1 µM; in [6], 100 ± 3.3 µM. Moreover, the “ILP % at 100 μM (inhibition of lipid peroxidation)” value in [5] (100 µM) was 44% and 44.3 ± 1.1%. Besides, the miLogP in data set [7] is given as 3.96. In [8], the RM is recorded as −0.4102.

For `COc1ccc(/C=C2\SC(=S)N(NC(=O)c3sc4ccccc4c3Cl)C2=O)cc1OC` [II], the “% paw edema reduction (in vivo)” value in [9] is 93.26%. The IC50 in data set [10] is 3.4 µM; in [11] it was 2.33 µM.

On to `Cc1ccc(C(C)C)c(O)c1/C=N/NC(=O)c1cc(-c2ccccc2)n[nH]1` [IV], for which the “% paw edema reduction (in vivo)” value in [9] is given as 81.93%. In addition, the values for the IC50 in data set [10], in [11] and in [12] were 10.3 ± 0.1 µM, 3.05 ± 0.067 µM and 0.068 ± 0.01 µM, respectively.

`CN(C)c1ccc(/C=C/c2cn(C(=O)/C=C/c3ccccc3)cc2C(=O)c2ccccc2)cc1` [compound 5, (E)-1-(3-benzoyl-4-((E)-4-(dimethylamino)styryl)-1H-pyrrol-1-yl)-3-phenylprop-2-en-1-one]: the IC50 in [1] amounted to 30 ± 1.6 µM; in data set [2], 0.55 ± 0.3 µM. In data set [13], this compound had an RM of −0.4174. For the same compound, in data set [3] (100 µM), the “ILP % at 100 μM (inhibition of lipid peroxidation)” value is 36% and 36.4 ± 0.4%.

For the compound `Cc1c(C)c2c(c(C)c1O)CCC(C)(C(=O)O)O2` (centres unmarked) [Trolox, reference compound], in data set [3], the “ILP % at 100 μM (inhibition of lipid peroxidation)” value was determined as 93 ± 2.5%.

As for `CN(C)c1ccc(-c2cn(C(=O)/C=C/c3ccccc3)cc2C(=O)c2ccc(Cl)cc2)cc1` [compound 6, (E)-1-(3-(4-chlorobenzoyl)-4-(4-(dimethylamino)phenyl)-1H-pyrrol-1-yl)-3-phenylprop-2-en-1-one], the values for the IC50 in data set [1] and in [2] were 27.5 ± 1.3 µM and 7 ± 0.6 µM, respectively. The RM in data set [13] is recorded as −0.4771. In data set [3] (100 µM), the “ILP % at 100 μM (inhibition of lipid peroxidation)” value was 62% and 61.6 ± 2.3%.

As to `CN(C)c1ccc(-c2c[nH]cc2C(=O)c2ccc(Cl)cc2)cc1` [compound 2, (4-chlorophenyl) (4-(4-(dimethylamino)phenyl)-1H-pyrrol-3-yl) methanone], in data set [1], the IC50 turned out to be 7.5 ± 0.5 µM. Also, the inhibition at 100 µM in data set [2] stood at 17%. In addition, the RM in data set [13] is given as 0.0116. Also, the “ILP % at 100 μM (inhibition of lipid peroxidation)” value in [3] (100 µM) was 33% and 32.8 ± 0.8%.

In the case of `O=C(O)/C=C/c1ccccc1` [Cinnamic acid, reference compound], the “ILP % at 100 μM (inhibition of lipid peroxidation)” value in [5] was 78 ± 3.2%.

In the case of `COc1ccc(C=NNC(=O)c2sc3ccccc3c2Cl)cc1OC` [III], in data set [9], the “% paw edema reduction (in vivo)” value is listed as 89.8%. Moreover, the IC50 in data set [10] was 2.9 µM; in [11], 1.87 µM; in data set [12], 0.68 µM.

As for `CN(C)c1ccc(/C=C/c2c[nH]cc2C(=O)c2ccc(Cl)cc2)cc1` [compound 1, (E)-(4-chlorophenyl) (4-(4-(dimethylamino)styryl)-1H-pyrrol-3-yl)methanone], the figures for the IC50 in data set [1] and in data set [2] were 51.5 ± 1.7 µM and 10 ± 0.8 µM, respectively. In data set [13], this compound yielded an RM of 0.3076. Besides, the “ILP % at 100 μM (inhibition of lipid peroxidation)” value in data set [3] (100 µM) is 34% and 33.8 ± 1.3%.

As to `CN(C)c1ccc(-c2c[nH]cc2C(=O)c2cccs2)cc1` [compound 3, (4-(4-(dimethylamino)phenyl)-1H-pyrrol-3-yl) (thiophen-2-yl) methanone], the inhibition at 100 µM was 43% in data set [1] (pH 9, 100 μM, pH 9.00, read-out: LOX Inh. % at 100 μM) and 12% in data set [2]. Further, the RM in data set [13] was −0.3340. The “ILP % at 100 μM (inhibition of lipid peroxidation)” value in [3] is “inactive”; in data set [3] (100 µM) it was “no action at all and no”.

Turning to `COc1cc(/C=c2\c(=O)[nH]n3c(=O)c4ccccc4nc23)cc(OC)c1OC` [I], the concentration for half-maximal inhibition (IC50) in data set [10] is 0.668 ± 0.0212 µM; in data set [11] it was 2.3 ± 0.13 µM; in [12], 0.047 ± 0.0027 µM.

With `O=C(c1ccccc1)c1cn(C(=O)/C=C/c2ccccc2)cc1-c1ccccc1` [compound 8, (E)-1-(3-Benzoyl-4-Phenyl-1H-Pyrrol-1-Yl)-3-Phenylprop-2-En-1-One], the IC50 in [4] is 6 ± 0.1 µM; in data set [6], 39 ± 2.3 µM. For the same compound, the “ILP % at 100 μM (inhibition of lipid peroxidation)” value in data set [5] (100 µM) was 58% and 58.1 ± 1.8%. In [7], the miLogP is 6.26. Also, the RM in data set [8] was −0.4771.

In general, IC50 refers to the concentration that gives 50% inhibition.
